The text below walks through data of PMC9740789, “Investigation of In Vitro and In Vivo Metabolism of α-Amanitin in Rats Using Liquid Chromatography-Quadrupole Time-of-Flight Mass Spectrometric Method” (Molecules, 2022).

Data set [1] can be described thus: In vitro MetID in CLM and HLM. The class given is in vitro ADME, cynomolgus monkey, human. Particulars: in vitro MetID with GSH in liver microsomes of 5 species. On the procedure:
Therefore, in vitro and in vivo MetID were conducted to explore any possible different metabolites between the two systems. The in vitro and in vivo MetID samples were analyzed by a LC-qTOF-MS, and the data were used to elucidate a metabolite of α-amanitin using PeakView® and MetabolitePilot™. The structure of the metabolite of α-amanitin was predicted by MetabolitePilot™. The fragmentation pattern of the predicted metabolite ion from product ion scan was compared to the fragmentation pattern of the parent ion using PeakView®.
In vitro MetID was conducted in 5 species (mouse, rat, cynomolgus monkey, dog, and human) of liver microsomes. Cofactors (NADPH solution A and B, 5 mM UDPGA, and 0.5 mM GSH), compound (2 mg/mL of α-amanitin), and DW were mixed and pre-incubated for 5 min at 37 °C. After the pre-incubation, 20 μL of liver microsome (20 mg/mL) was added to 380 μL of cofactor mixture and incubated for 0 and 120 min at 37 °C. After the incubation for each time point, 150 μL of the mixture was transferred to 450 μL of 50% ACN in MeOH for stopping the reaction. Then the mixture was centrifuged at 10,000 rpm for 5 min. Then 550 μL of the supernatant was collected in a fresh E-tube and evaporated for 4 h. After evaporation, samples were reconstituted with 60 μL of 50% MeOH with 5 mM ammonium formate. […]

Data set [2] in a line: In vitro metabolic stability in human liver microsomes. The data set is classed as in vitro ADME. On the procedure: (§1) In vitro stability of α-amanitin at liver microsomal system was evaluated by a LC-qTOF-MS. The remaining % represents the percentage of the sample (α-amanitin) peak area to the internal standard (verapamil) peak area.
(§2) The in vitro half-life (T1/2) and the in vitro intrinsic clearance (CLint, in vitro) were calculated by using the slope (k) of the graph shown in Figure 3. The calculation formula is shown in Equations (1) and (2). (1) T1/2=ln2/k (2) CLint,in vitromL/min/mg=k×microsomal volume mL/microsomal protein mg
(§3) The concentration of liver microsomes (microsomal volume/microsomal protein) used in the experiment was 0.5 mL/mg. The obtained CLint, in vitro was used to calculate in vivo intrinsic clearance (CLint, in vivo). The equations for calculating CLint, in vivo is shown at Equation (3):(3) CLint,in vivomL/min/kg=CLint,in vitro×mg microsomal protein/g liver weight×(g liver weight/kg body weight)
(§4) The ratio of mg microsomal protein to g liver weight was 44.8 and 48.8 in rat and human, respectively. And the ratio of g liver weight/kg body weight was 40 and 25.7 in rat and human, respectively. The hepatic clearance (CLh) was calculated from CLint, in vivo in a well-stirred model using the following Equation (4):(4) CLhmL/min=(Qh×CLint,in vivo/Qh+CLint,in vivo)
(§5) Qh (mL/min/kg), the hepatic blood flow, is known to be 55.2 and 20.7 mL/min/kg in rat and human, respectively. As a result, α-amanitin has a low hepatic clearance according to the aforementioned well-stirred model.
(§6) A metabolic stability test of α-amanitin was performed in rat and human liver microsomes. Cofactors (NADPH regenerating system solution A and B), compound (100 μg/mL of α-amanitin), 0.5 M potassium phosphate buffer with pH 7.4, and DW were mixed and pre-incubated for 5 min at 37 °C. After the pre-incubation, 12 μL of rat or human liver microsome (20 mg/mL each) was added to a 468 μL of pre-incubated cofactor mixture and the mixture was incubated for 0, 15, 30, and 60 min. After the incubation for each time point, 100 μL of the mixture was aliquoted to a 1.5 mL E-tube at each time point and 100 μL of 50% ACN in MeOH which containing 250 ng/mL of verapamil as an internal standard for protein precipitation was added for stopping the reaction. Then the mixture was centrifuged at 10,000 rpm for 5 min. Then 180 μL of the supernatants was collected in a fresh E-tube and evaporated for 3 h. After evaporation, samples were reconstituted with 150 μL of 50% MeOH with 5 mM ammonium formate. After centrifugation at 10,000 rpm for 5 min, 140 μL of reconstituted sample was transferred to a LC-vial.

Data set [3] in a line: In vitro metabolic stability in rat liver microsomes. The class given is in vitro ADME. On the procedure: as §1, §2, §3, §4, §5, §6

`CC[C@H](C)[C@@H]1NC(=O)CNC(=O)[C@@H]2Cc3c([nH]c4cc(O)ccc34)[S@+]([O-])C[C@H](NC(=O)CNC1=O)C(=O)N[C@@H](CC(N)=O)C(=O)N1C[C@H](O)C[C@H]1C(=O)N[C@@H]([C@@H](C)[C@@H](O)CO)C(=O)N2` [α-amanitin]: the “Reactive metabolites (GSH adducts)” value in data set [1] was “no reactive metabolites with GSH adducts were detected”. The fraction remaining at 0.25 h worked out at 89.2 ± 5.72% in data set [2] (human liver microsomes, 15 min incubation, NADPH regenerating system, potassium phosphate buffer pH 7.4, 37 °C, 5 min pre-incubation, LC-qTOF-MS) and 94.2 ± 8.6% in data set [3] (rat liver microsomes, 15 min incubation, NADPH regenerating system, potassium phosphate buffer pH 7.4, 37 °C, 5 min pre-incubation, LC-qTOF-MS). Further, the fraction remaining at 0.5 h in data set [2] (human liver microsomes, 30 min incubation, NADPH regenerating system, potassium phosphate buffer pH 7.4, 37 °C, 5 min pre-incubation, LC-qTOF-MS) amounted to 85.1 ± 5.52%; in data set [3] (rat liver microsomes, 30 min incubation, NADPH regenerating system, potassium phosphate buffer pH 7.4, 37 °C, 5 min pre-incubation, LC-qTOF-MS) it was 93.1 ± 8.64%. For the same compound, the share remaining at 1 h was 82.6 ± 3.96% in data set [2] (human liver microsomes, 60 min incubation, NADPH regenerating system, potassium phosphate buffer pH 7.4, 37 °C, 5 min pre-incubation, LC-qTOF-MS) and 90.3 ± 4.37% in data set [3] (rat liver microsomes, 60 min incubation, NADPH regenerating system, potassium phosphate buffer pH 7.4, 37 °C, 5 min pre-incubation, LC-qTOF-MS). Also, the half-life came out at 3.93 h in data set [2] (human liver microsomes, in vitro half-life, ln2/k from slope of ln(Remaining %) vs incubation time 0-60 min, NADPH, pH 7.4, 37 °C) and 7.45 h in data set [3] (rat liver microsomes, in vitro half-life, ln2/k from slope of ln(Remaining %) vs incubation time 0-60 min, NADPH, pH 7.4, 37 °C). Also, the “CLint, In Vitro” value in data set [2] (human liver microsomes, k × microsomal volume/microsomal protein (0.5 mL/mg as printed)) is less than 10 µL/min/mg; in data set [3] (rat liver microsomes, k × microsomal volume/microsomal protein (0.5 mL/mg as printed)) it was less than 10 µL/min/mg. Moreover, the CLh in data set [2] (human, predicted hepatic clearance, well-stirred model, Qh 20.7 mL/min/kg) was 5.43 mL/min/kg; in data set [3] (rat, predicted hepatic clearance, well-stirred model, Qh 55.2 mL/min/kg), 5.05 mL/min/kg. Besides, the “CLint, In Vivo” value in data set [2] (human, scaled from CLint, in vitro with 48.8 mg microsomal protein/g liver and 25.7 g liver/kg body weight) was found to be 7.36 mL/min/kg; in data set [3] (rat, scaled from CLint, in vitro with 44.8 mg microsomal protein/g liver and 40 g liver/kg body weight) it was 5.56 mL/min/kg.
